Experimental data from article PMC10070013, “Apigenin improves cytotoxicity of antiretroviral drugs against HTLV-1 infected cells through the modulation of AhR signaling” (Neuroimmune Pharmacology and Therapeutics, 2023).

What was measured:
[1] = biological target: T1, ATP binding cassette subfamily B member 1 (ABCB1/P-gp) (Homo sapiens, UniProt P08183); test: Nano-ITC with recombinant protein (positive control protein)
T1 construct: Recombinant human ABCB1 (LS-G142372-20)

[2] = biological target: T2, aryl hydrocarbon receptor (AhR) (Homo sapiens, UniProt P35869); test: Nano-ITC with recombinant protein; format: binding
T2 construct: Recombinant human AhR (LS-G13702-10)
T2 sequence (P35869 11-848): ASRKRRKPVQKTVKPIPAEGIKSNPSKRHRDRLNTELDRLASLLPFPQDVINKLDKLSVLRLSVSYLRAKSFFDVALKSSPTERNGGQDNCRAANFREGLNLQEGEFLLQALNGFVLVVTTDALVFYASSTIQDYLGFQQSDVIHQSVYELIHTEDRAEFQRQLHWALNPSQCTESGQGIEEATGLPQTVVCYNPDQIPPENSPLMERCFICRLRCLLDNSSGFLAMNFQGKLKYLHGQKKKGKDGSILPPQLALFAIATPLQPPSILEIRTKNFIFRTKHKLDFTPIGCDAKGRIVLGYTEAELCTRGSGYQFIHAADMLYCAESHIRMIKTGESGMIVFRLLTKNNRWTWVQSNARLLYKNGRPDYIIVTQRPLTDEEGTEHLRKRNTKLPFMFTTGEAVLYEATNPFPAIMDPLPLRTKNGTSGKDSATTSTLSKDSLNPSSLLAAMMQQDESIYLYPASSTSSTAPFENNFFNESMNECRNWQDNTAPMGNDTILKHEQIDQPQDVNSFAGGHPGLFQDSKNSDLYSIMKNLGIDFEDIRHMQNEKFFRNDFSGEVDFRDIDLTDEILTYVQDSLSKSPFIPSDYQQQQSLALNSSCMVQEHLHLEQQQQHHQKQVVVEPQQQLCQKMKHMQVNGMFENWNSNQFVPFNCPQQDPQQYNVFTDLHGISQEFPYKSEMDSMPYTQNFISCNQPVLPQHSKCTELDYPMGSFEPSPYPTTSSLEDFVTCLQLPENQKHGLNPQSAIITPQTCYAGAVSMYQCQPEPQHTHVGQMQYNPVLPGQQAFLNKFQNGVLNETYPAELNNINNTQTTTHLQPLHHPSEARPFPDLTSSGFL

T1 sequence (P08183 whole entry): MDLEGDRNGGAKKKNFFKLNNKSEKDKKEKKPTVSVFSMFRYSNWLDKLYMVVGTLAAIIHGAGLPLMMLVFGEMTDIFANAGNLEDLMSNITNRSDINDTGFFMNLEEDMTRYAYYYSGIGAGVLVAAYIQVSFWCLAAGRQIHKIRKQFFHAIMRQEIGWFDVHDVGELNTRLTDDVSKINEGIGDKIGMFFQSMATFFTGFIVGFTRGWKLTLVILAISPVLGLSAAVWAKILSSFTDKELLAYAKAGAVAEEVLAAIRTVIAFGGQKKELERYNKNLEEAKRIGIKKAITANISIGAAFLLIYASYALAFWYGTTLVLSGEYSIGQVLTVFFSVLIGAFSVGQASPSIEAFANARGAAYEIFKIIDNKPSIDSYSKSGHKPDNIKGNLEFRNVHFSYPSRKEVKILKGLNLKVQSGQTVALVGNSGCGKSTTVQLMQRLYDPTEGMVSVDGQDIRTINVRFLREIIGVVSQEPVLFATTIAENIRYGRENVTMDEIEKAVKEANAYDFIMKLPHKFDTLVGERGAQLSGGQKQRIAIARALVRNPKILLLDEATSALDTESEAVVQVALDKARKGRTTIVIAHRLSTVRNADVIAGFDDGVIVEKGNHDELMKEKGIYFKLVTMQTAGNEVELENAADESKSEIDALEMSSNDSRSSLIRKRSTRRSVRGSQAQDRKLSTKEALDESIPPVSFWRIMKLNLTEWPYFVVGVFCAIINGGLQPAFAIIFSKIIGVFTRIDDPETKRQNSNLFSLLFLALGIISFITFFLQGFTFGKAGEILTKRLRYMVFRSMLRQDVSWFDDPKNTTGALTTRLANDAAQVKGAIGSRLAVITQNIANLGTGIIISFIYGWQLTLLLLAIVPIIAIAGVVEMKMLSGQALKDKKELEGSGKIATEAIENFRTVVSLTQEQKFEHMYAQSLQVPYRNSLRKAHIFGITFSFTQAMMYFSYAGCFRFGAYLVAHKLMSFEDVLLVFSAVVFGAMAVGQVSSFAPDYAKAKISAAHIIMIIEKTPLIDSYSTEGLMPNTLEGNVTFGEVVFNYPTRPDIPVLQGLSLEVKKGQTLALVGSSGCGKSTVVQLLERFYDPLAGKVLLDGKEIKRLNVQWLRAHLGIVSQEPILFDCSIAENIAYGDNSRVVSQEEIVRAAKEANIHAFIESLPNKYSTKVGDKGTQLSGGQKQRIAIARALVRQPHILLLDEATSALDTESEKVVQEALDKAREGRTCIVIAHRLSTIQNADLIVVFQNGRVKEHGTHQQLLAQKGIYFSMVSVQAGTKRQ

Compound `O=c1cc(-c2ccc(O)cc2)oc2cc(O)cc(O)c12` [Apigenin] has a Kd [1] of 1 nM and a Kd [2] of 4240 nM.
